This note sets out measurements from patent US8278348B2, “Chondropsin-class antitumor V-atpase inhibitor compounds, compositions and methods of use thereof” (priority 2002, dated 2012).

Experiment in all cases: Two day XTT cytotoxicity assay
Holding throughout (type): cell-based
On the technique in general: Formazan colour is commonly taken as a measure of viable cells.

One experiment relates to LOX. As to conditions: Homo sapiens, Melanoma. An excerpt:
(§1) This example describes the cytoxicity of poecillastrin A (1), isolated in Example 1. The cytotoxicity assay, details of which have been described previously (Bokesch et al., J. Nat. Prod. 1999, 62, 633-635), utilized melanoma (LOX), breast […], ovarian (OVCAR-3), and non-small cell lung (SNB-19) human tumor cell lines and IC-2^WT and IC-2^V814 murine mast cell lines (Hashimoto et al., Am. J. Pathol. 1996, 148, 189-200).
(§2) The in vitro 10 cell-line bioassay was a two day bioassay. Cells were grown in RPMI-1640 (Rosweli Park Memorial Institute) without L-glutamine, supplemented with 10% fetal bovine serum, 5.0 mL of a 200 mM glutamine stock, and 0.5 mL of gentamicin and plated out in T-162 cm^2 flasks. Once the cells were confluent, they were harvested and plated in 96-well microtiter flat-bottom plates at a seeding density of 50-10,000 cells per well, to yield optical density readings in the range of 1-2.0, and incubated for 1 h in a 37° C., 5% CO2 incubator. After the 1 h incubation, the cells were then introduced to the sample of poecillastrin A, via a Beckman Biomek Workstation-1000. The Biomek-1000 performed seven serial dilutions in a 96-well round-bottom plate and then transferred aliquots of 100 μL to the assay plate. The plate was then returned to the incubator for […]. After the two day incubation, the cells were exposed to tetrazolium salt, 2,3-bis[2-methoxy-4-nitro-5-sulfophenyl]-2H-tetrazolium-5-carboxanilide (XTT), for a 4 h incubation in a 37° C. incubator, where viable cells reduced the tetrazolium salt to a colored formazan product. Once the incubation was complete, the plates were read in a dual wavelength mode at 450 nm, with a 650 nm reference, using a SpectraMAX 250 (Molecular Devices) plate reader. Resulting data for each cell line are found in Table 3.

The test system of another experiment is IC-2 WT. The following applies: Mus musculus, Murine mast cell.
Source text: as §1, §2

A further experiment has as its system OVCAR-3. As to conditions: Homo sapiens, Ovarian.
Source text: as §1, §2

Another experiment deals with A549. The following applies: Homo sapiens, Breast.
Source text: as §1, §2

The next experiment deals with IC-2 V814. As to conditions: Mus musculus, Murine mast cell.
Source text: as §1, §2

The subject of another experiment is SNB-19. As to conditions: Homo sapiens, Non-small cell lung.
Source text: as §1, §2

The term IC50 denotes the point on the concentration scale where inhibition reaches its midpoint. A high value points to a need for much substance. Regarding `COC1/C=C/C=C/CC/C=C/C=C/C(=O)NC(C(O)C(=O)O)C(=O)OC(C(C)C(O)C(NC(=O)C(C)C(O)CCC(C)C(O)/C(C)=C/C(C)(C)C(O)C(CC(C)C)NC(=O)/C=C/C(C)(C)C(=O)C(C)C(O)C(C)C)C(C)O)C/C=C(\C)C(O)C(C)/C=C(\C)C(O)C(C)C(O)CC2CC(C)CC1O2` (stereo not drawn) [Poecillastrin A, poecillastrin A], the concentration for half-maximal inhibition (IC50) with LOX was 14 nM; in the experiment on IC-2 WT, 206 nM; with OVCAR-3, 28 nM; with A549, more than 10000 nM; in the experiment with IC-2 V814, 546 nM; in the experiment with SNB-19 it was more than 10000 nM.
